The numbers were not newly measured in PMC11579209, “Population pharmacokinetics and exposure–response relationships of maribavir in transplant recipients with cytomegalovirus infection” (Journal of Pharmacokinetics and Pharmacodynamics, 2024), which cites them from elsewhere.

Details of series [1]: method as in PMID 12654667, doi:10.1016/j.bbmt.2018.12.600. The conditions noted are these: metabolite of maribavir; cited from earlier work.
In the next series the test system is CMV. Also on record: method as in PMID 34674258. The conditions noted are these: through Week 24 or Week 14; cited from earlier work.

As to `Nc1nc2cc(Cl)c(Cl)cc2n1[C@H]1O[C@@H](CO)[C@H](O)[C@@H]1O` [VP44469], in series [1], the “Pharmacological activity of metabolite” value was “pharmacologically inactive”. Take `COc1cccc(N2CCN(C3=Nc4c(F)cccc4[C@H](CC(=O)O)N3c3cc(C(F)(F)F)ccc3OC)CC2)c1` [letermovir]: in the series on CMV, the “Exposure dependency of clinically significant CMV infection (CS-CMVi)” value is recorded as “no significant exposure dependencies”.
